According to the NIST ThermoML archive (doi:10.1016/j.jct.2012.03.005):

Conditions: 101.33 kPa, Liquid, Vibrating tube method

CCn1cc[n+](C)c1.CS(=O)(=O)[O-] [1-ethyl-3-methylimidazolium methanesulfonate]
Conditions	mass density [kg/m3]
298.15 K	1239.96
308.15 K	1233.22
318.15 K	1226.51
328.15 K	1219.84
338.15 K	1213.2
348.15 K	1206.63
358.15 K	1200.08
